Experimental data: ChEMBL document CHEMBL5653615 (J Biol Chem, 2013)
The source made the active and inactive calls. The rule behind the calls is not given here.

Key:
[1] = target: Protein kinase C delta type (Homo sapiens) (UniProt Q05655); experiment: Inhibition of human PKCd at 1.82 nM by HotSpot assay relative to control
[2] = target: Dual specificity protein kinase CLK2 (Homo sapiens) (UniProt P49760); conditions: dose 1.82 nM
Description: Inhibition of human CLK2 at 1.82 nM by HotSpot assay relative to control

[3] = target: Calcium/calmodulin-dependent protein kinase type 1D (Homo sapiens) (UniProt Q8IU85); experiment: Inhibition of human CAMK1d at 1.82 nM by HotSpot assay relative to control
Chain of Calcium/calmodulin-dependent protein kinase type 1D (Homo sapiens) (Q8IU85 whole entry, looked up): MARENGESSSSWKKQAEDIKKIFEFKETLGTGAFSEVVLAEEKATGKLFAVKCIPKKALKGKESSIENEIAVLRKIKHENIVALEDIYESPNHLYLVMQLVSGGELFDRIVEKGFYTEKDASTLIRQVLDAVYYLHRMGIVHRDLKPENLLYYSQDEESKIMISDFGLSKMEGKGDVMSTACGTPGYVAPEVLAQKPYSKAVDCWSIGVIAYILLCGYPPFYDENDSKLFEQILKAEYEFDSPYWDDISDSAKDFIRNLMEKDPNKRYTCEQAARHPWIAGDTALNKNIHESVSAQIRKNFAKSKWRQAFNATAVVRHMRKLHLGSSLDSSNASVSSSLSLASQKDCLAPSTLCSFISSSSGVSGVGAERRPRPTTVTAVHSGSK

[4] = target: T1, Aurora kinase C (Homo sapiens) (UniProt Q9UQB9); experiment: Inhibition of human Aurora C at 1.82 nM by HotSpot assay relative to control
T1 sequence (whole entry): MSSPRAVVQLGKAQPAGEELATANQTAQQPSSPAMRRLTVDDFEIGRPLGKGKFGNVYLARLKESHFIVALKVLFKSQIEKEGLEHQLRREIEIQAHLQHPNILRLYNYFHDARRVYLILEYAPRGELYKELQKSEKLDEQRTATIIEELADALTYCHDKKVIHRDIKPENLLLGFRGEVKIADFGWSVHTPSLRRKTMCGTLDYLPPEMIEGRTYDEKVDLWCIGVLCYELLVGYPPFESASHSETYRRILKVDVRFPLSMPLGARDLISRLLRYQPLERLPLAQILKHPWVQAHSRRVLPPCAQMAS

[5] = target: T2, Ephrin type-B receptor 3 (Homo sapiens) (UniProt P54753); experiment: Inhibition of human EPHB3 at 1.82 nM by HotSpot assay relative to control
T2 sequence (whole entry): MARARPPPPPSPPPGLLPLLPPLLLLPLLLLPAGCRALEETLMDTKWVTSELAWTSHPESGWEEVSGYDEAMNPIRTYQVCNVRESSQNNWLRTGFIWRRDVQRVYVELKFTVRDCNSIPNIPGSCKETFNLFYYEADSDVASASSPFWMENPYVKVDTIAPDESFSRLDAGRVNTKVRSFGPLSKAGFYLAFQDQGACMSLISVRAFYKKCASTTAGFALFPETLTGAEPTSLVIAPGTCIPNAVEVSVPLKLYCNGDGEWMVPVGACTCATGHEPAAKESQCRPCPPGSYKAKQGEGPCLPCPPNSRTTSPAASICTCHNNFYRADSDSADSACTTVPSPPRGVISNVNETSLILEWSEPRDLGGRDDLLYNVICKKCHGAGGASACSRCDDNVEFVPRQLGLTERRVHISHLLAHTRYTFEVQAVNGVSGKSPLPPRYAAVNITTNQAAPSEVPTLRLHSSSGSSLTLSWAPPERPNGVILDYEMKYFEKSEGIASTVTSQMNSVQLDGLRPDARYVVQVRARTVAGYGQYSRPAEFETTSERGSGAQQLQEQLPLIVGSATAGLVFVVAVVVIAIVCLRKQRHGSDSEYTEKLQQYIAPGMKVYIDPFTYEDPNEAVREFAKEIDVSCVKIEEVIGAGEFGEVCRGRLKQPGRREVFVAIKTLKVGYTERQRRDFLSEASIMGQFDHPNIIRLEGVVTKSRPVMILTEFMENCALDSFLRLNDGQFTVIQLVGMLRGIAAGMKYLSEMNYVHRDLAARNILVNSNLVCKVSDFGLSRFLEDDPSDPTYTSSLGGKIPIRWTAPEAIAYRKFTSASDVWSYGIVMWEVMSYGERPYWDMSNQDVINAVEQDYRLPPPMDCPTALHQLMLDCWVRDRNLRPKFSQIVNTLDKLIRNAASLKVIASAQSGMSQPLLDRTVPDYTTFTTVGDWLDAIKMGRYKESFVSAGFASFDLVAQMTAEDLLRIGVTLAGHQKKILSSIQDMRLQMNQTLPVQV

[6] = target: Dual specificity protein kinase CLK3 (Homo sapiens) (UniProt P49761); conditions: dose 1.82 nM
Description: Inhibition of human CLK3 at 1.82 nM by HotSpot assay relative to control

[7] = target: Cyclin-dependent kinase 2/cyclin E1 (Homo sapiens) (UniProt P24864+P24941); experiment: Inhibition of human CDK2/cyclin E at 1.82 nM by HotSpot assay relative to control; format: protein-complex assay
[8] = target: SRSF protein kinase 2 (Homo sapiens) (UniProt P78362); experiment: Inhibition of human SRPK2 at 1.82 nM by HotSpot assay relative to control
[9] = target: Mast/stem cell growth factor receptor Kit (Homo sapiens) (UniProt P10721); experiment: Inhibition of human c-Kit at 18.6 nM by HotSpot assay relative to control
Chain of Mast/stem cell growth factor receptor Kit (Homo sapiens) (P10721 whole entry): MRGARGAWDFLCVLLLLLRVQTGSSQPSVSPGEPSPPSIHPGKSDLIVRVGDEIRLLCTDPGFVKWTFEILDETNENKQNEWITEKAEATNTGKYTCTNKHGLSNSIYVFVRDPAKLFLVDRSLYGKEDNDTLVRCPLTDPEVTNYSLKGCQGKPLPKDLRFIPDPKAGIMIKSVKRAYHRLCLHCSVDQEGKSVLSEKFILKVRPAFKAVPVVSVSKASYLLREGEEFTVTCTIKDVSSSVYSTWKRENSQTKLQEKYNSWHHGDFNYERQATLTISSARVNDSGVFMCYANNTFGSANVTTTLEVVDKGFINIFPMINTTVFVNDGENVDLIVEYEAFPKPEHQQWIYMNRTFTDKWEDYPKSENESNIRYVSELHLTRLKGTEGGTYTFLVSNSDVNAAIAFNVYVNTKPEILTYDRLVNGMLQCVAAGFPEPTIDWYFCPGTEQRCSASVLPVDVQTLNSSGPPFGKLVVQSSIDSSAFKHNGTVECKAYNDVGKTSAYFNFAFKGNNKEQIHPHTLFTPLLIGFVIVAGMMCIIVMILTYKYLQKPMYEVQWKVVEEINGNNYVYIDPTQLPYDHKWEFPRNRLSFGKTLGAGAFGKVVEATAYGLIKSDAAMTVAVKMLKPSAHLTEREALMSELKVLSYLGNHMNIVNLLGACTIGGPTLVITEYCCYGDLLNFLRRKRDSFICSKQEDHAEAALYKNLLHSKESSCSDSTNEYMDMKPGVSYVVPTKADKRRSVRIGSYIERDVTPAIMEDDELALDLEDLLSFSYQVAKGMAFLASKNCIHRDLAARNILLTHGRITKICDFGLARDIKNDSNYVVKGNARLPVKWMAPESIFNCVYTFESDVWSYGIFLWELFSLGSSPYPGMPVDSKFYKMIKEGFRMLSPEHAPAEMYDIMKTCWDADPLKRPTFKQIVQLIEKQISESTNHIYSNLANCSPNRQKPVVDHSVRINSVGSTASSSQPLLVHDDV

[10] = target: Serine/threonine-protein kinase B-raf (Homo sapiens) (UniProt P15056); experiment: Inhibition of human BRAF at 18.6 nM by HotSpot assay relative to control
[11] = target: Tyrosine-protein kinase ABL1 (Homo sapiens) (UniProt P00519); experiment: Inhibition of human ABL1 at 18.6 nM by HotSpot assay relative to control
Homo sapiens = species: Homo sapiens; experiment: Inhibition of human CDK2/cyclin A at 18.6 nM by HotSpot assay relative to control
[12] = target: Myosin light chain kinase, smooth muscle (Homo sapiens) (UniProt Q15746); experiment: Inhibition of human MYLK at 18.6 nM by HotSpot assay relative to control
Chain of Myosin light chain kinase, smooth muscle (Homo sapiens) (Q15746 whole entry): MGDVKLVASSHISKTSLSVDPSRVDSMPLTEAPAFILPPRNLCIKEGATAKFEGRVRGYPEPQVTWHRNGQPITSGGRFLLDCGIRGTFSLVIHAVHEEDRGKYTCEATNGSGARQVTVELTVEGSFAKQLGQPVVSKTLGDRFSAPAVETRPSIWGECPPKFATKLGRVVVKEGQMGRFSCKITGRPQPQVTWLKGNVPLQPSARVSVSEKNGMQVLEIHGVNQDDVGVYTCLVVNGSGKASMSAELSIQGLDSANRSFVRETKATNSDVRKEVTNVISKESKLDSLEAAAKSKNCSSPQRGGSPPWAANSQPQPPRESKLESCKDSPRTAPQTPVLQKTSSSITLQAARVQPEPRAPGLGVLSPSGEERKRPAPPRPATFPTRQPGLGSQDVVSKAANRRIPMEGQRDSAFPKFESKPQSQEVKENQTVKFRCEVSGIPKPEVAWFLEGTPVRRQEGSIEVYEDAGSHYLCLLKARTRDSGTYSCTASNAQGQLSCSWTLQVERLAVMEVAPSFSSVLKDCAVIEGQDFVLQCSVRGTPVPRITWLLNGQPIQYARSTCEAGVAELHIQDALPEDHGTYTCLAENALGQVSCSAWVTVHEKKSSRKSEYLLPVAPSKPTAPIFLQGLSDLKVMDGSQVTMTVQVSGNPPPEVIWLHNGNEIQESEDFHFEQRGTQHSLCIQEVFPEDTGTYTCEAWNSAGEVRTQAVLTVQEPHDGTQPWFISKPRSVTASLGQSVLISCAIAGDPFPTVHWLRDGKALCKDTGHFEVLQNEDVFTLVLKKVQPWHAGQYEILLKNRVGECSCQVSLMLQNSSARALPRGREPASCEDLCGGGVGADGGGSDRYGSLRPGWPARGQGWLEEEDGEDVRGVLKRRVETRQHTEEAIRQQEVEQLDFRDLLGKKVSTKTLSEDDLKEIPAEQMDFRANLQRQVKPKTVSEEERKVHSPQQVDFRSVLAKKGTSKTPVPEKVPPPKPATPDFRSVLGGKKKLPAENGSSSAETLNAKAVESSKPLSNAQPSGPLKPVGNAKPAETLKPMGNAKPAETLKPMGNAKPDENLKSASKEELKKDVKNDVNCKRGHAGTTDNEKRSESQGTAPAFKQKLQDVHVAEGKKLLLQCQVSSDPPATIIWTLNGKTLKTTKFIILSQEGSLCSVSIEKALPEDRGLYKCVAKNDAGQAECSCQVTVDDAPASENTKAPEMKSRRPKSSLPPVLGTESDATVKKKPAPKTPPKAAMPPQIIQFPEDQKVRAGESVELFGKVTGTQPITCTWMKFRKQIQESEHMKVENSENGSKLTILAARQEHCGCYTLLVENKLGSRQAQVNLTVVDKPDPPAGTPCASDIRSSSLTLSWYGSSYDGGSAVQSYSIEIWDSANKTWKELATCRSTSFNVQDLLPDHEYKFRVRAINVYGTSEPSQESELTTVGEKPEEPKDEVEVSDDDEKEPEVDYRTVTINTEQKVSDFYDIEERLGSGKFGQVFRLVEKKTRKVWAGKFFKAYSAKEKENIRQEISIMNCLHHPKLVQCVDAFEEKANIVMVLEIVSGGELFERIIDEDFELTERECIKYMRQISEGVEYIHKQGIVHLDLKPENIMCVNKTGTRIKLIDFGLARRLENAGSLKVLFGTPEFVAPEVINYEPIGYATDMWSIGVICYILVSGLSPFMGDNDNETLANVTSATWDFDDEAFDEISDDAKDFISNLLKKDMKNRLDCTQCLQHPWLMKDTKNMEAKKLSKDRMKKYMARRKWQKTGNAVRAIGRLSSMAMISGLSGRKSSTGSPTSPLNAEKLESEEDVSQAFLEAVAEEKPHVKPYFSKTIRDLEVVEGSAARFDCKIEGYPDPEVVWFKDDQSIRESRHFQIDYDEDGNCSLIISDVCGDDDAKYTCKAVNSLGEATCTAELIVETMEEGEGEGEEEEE

[13] = target: Insulin receptor (Homo sapiens) (UniProt P06213); experiment: Inhibition of wild-type human Insulin receptor autophosphorylation in CHO-K1 cell lysate at 10 uM for 30 mins on ice followed by insulin stimulation for 10 mins by Western blot analysis; format: subcellular; conditions: time 40.0 min
Chain of Insulin receptor (Homo sapiens) (P06213 28-758 limits assumed): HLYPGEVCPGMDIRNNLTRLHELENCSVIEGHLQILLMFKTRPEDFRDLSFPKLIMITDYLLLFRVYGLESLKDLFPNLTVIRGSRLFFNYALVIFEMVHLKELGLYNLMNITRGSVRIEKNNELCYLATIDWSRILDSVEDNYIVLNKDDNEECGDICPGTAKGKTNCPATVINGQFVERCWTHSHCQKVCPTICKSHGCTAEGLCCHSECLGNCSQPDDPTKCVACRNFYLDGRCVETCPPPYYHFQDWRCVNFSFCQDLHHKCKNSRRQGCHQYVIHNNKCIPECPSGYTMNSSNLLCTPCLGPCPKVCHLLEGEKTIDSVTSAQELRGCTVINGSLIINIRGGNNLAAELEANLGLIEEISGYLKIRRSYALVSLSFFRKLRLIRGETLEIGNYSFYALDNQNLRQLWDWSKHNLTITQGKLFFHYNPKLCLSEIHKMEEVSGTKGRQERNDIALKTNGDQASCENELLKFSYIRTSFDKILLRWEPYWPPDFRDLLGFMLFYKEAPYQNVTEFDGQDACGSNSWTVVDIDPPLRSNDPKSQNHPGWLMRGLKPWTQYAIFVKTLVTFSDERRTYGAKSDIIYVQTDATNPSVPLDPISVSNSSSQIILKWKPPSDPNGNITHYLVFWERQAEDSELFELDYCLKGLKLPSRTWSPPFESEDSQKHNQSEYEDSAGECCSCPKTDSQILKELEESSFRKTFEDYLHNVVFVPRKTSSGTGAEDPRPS
Chain of Insulin receptor (Homo sapiens) (P06213 763-1382 limits assumed): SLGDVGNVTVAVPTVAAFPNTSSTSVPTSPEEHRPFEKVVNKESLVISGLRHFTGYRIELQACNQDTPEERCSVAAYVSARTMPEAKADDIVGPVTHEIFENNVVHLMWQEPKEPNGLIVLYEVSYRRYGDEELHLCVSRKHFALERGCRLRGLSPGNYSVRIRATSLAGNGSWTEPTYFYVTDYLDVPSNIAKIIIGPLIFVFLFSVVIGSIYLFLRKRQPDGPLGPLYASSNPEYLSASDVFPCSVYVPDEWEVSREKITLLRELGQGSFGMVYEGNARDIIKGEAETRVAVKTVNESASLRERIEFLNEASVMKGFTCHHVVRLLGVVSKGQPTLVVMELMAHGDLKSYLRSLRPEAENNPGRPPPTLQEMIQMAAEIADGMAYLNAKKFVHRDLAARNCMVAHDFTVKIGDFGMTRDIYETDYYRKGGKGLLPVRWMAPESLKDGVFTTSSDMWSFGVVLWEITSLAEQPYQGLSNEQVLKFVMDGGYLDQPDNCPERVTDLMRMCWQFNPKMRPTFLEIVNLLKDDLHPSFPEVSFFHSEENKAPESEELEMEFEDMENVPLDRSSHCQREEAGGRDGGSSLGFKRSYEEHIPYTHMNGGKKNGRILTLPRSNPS

C[C@@]1(C(=O)Nc2ccc(F)nc2)CCCN1c1nc(Nc2cc(C3CC3)n[nH]2)c2cccn2n1 gave an inhibition [1] of -1.35%, an inhibition [2] of -1.7% and an inhibition [3] of -3.77%. It also gave an inhibition [4] of 35.7%, an inhibition [5] of 2.89% and an inhibition [6] of -1.35%. For the same molecule, the inhibition [7] was 3.51% and the inhibition [8] was -2.03%.

C[C@]1(O)C[C@@H](c2nc(-c3ccc4ccc(-c5ccccc5)nc4c3)c3c(N)nccn32)C1 showed an inhibition [9] of 2.65%, an inhibition [10] of 7.79% and an inhibition [11] of 9.07%. It also gave an inhibition (Homo sapiens) of -1.46% and an inhibition [12] of 2.54%.

For Oc1n[nH]c2nnc(-c3c(-c4ccccc4)nn4ccccc34)cc12, the inhibition [13] was “Active”.
